The text below walks through data of paper PMC9166712, “Fluorescent probes for monitoring myeloperoxidase-derived hypochlorous acid: a comparative study” (Scientific Reports, 2022).

pIC50: −log10 of the molar value. Read-outs that look alike come from different tables or passages of the source.

The nature of data set [1]: Stability of fluorophores in the MPO/H2O2/Cl- system. To be noted: fluorophore 5 µM, MPO 1.2 nM, H2O2 10 µM, NaCl 0.1 M, pH 7.4. In kind it is physicochemical. The procedure:
To check the stability of the COH, FL, and NBD-TSO fluorescence signal under the oxidizing conditions of MPO/H2O2/Cl^–, the fluorophores were incubated under the same reaction conditions, as described above for the five probes used in the study (Supplementary Figure S1). […] Overall, the fluorophores formed from the probes used may undergo consumption in the presence of MPO, H2O2 and Cl^–, due to their reaction with HOCl and/or via peroxidatic activity of MPO in the absence of Cl^–. This is, however, expected to occur only under the condition of excess of the oxidants (H2O2 and/or HOCl), as evidenced by the stable fluorescence signals of the products observed within 1 h of incubation (Fig. 3). The experimental design for monitoring HOCl involving probes producing such fluorophores should, therefore, take into account potential consumption of the fluorescent product, when the amount of the oxidant exceeds the probe availability.
(§1) Supplementary Figure S1. (a) Decrease of COH fluorescence in the incubation mixtures containing […]
(§2) in the presence of catalase (100 U/ml, black); in the absence of NaCl (green); in the absence of NaCl but in the presence of catalase (dark blue); in the absence of MPO (light blue); in th e absence of MPO but in the presence of catalase (pink). ( b), (c) same as (a) but instead of COH, incubation mixtures contained fluorescein and NBD -TSO, respectively.
Supplementary Figure S2. The relationship used to determine the rate constant between APF and HOCl (a), or […] and HOCl (b), according to the competition kinetic approach. The solid lines in the panel (a) and (b) represent the linear fittings to the equation
1 = 1 + 1 kAPC/or APF [APC/orAPF]. In the case of reaction between […]
(2kFLBA+HOCl = 1,11 × 104 M-1s-1). In the case of APF, the samples contained APF (0 – 100 µM), HOCl (5 µM), and CBA (25 µM) as a reference compound (2kCBA+HOCl = 1,80 × 104 M-1s-1). The concentrations of COH and fluorescein were determined by LC/MS. […]

The target in data set [2] is T1, MPO (Homo sapiens, UniProt P05164). In words: Z' parameter of the MPO/H2O2/Cl- assays. Set-up: MPO from human neutrophils was obtained from Athens Research and Technology; purchased Athens Research and Technology (Athens, GA); host or cells: human neutrophils (natural source, donor material). To be noted: both end-point (20 min) and kinetic (initial rates over 5 min) measurements. The procedure:
The Z’ parameter is a measure of the assay quality in terms of its applicability to screen for bioactive compounds in cell-free or cell-based systems. The Z’ value of 0.5 or higher is generally accepted for the application of any assay for high throughput screening (HTS) of large chemical libraries. For the probes tested, the Z’ parameter was calculated on the basis of end-point measurements (fluorescence measured at a specific time of incubation) and kinetic measurements (rates of fluorescence increase), according to the Eq. 5. In the end-point measurements the Z’ values were calculated for the time of incubation equal to 20 min. To calculate the kinetic Z’ the initial rates of fluorescent product formation over 5 min were used. […] The lowest Z’ values around 0.7 were obtained for the NBD-TM probe. All the probes produced the Z’ values compatible with HTS applications.
The Z’ factor is a dimensionless coefficient and was calculated on the basis of data presented in Fig. 3 according to the equation below (Eq. 5)[57].5 Z^′=1-3S.D.control+-3S.D.control -/meancontrol +-meancontrol -, where S.D.control+ and S.D.control- are the standard deviation values, and meancontrol+ and meancontrol- are the mean values for the positive and negative control, respectively. The value of Z ' above 0.5 means good quality of the assay. The higher value of Z ' parameter means the better quality of the assay. This parameter cannot reach value higher than 1.

Data set [3] is described as follows: Stability of probe stock solutions. In kind it is physicochemical. To be noted: stock in acetonitrile or water/acetonitrile (1:1 v/v), 6 °C in the dark. The protocol:
In the case of FLBA and APF, the two millimolar probe solutions were prepared in the water/acetonitrile mixture (1:1 v/v).

For data set [4] the following is noted: cited from earlier work.
Data set [5] can be described thus: Effect of DMSO on HOCl-induced probe oxidation. To be noted: 20 µM probe, 10 µM HOCl, pH 7.4. In kind it is physicochemical. The text has this:
DMSO is a solvent well tolerated by cells and it is often used to dissolve organic compounds intended for cell culture studies. Most chemical libraries for HTS applications use DMSO as the solvent. However, DMSO reacts directly with HOCl with a second-order rate constant of 350 ± 40 M^−1s^−1 and it has been shown that it may interfere with oxidation of boronate probes by HOCl[49]. Thus, the influence of DMSO additive on the observed fluorescence signal generated in the reaction between HOCl and the studied probes was evaluated. In this experiment, the incubation mixtures contained the chosen probe (20 µM), phosphate buffer (50 mM, pH 7.4), and DMSO in the amounts between 0–5% v/v (0–0.7 M). The reaction with HOCl was initiated by the bolus addition of 1 mM sodium hypochlorite to obtain the final HOCl concentration of 10 µM. In the case of NBD-TM that reacts rapidly and stoichiometrically (1:1 ratio) with HOCl[44] about 10 µM of NBD-TSO was formed (Fig. 6). […] The presence of 0.5% v/v (0.07 M) or higher concentrations of DMSO was sufficient to completely scavenge HOCl and block the fluorescence increase.
Incubation mixtures contained 20 µM of a probe, 10 µM HOCl, 0–5% v/v (0–0.7 M) DMSO, and 50 mM phosphate buffer (pH 7.4). (Representative result of three independent experiments is shown. Points represent means ± S.D.)

Data set [6] concerns the target T1, MPO. To be noted: read-out: Azide anion IC50, MPO 1.2 nM, H2O2 10 µM, pH 7.4. The procedure:
(§3) Mixtures contained MPO (1.2 nM), H2O2 (10 µM), NaCl (0.1 M), phosphate buffer (50 mM, pH 7.4), and the appropriate probe (20 µM). […] In the calculations the initial rates of probes oxidation were used. (Data are means ± standard deviation of three independent experiments).
MPO from human neutrophils was obtained from Athens Research and Technology (Athens, GA, According to the Certificate of Origin, the material used has been obtained from an FDA licensed collection center. Further the donors has given by signature full informed consent for the material to be used in commercial scientific research). […] Fluorescent probes were synthetized according to the procedures described in the literature. The synthesis of fluorescein pinacol boron ester (Fl-B) was performed based on the procedures published by Dickinson et al. and Rios et al.[58],[59]. The obtained boronate was then hydrolyzed to fluorescein boronic acid (FLBA). The synthesis of APF was performed based on the procedure published by Setsukinai and cooworkers. […] The detailed description of synthetic procedures can be found in the Supplementary Information. The CBA synthesis is described elsewhere[37],[61].
The lyophilized powder of MPO was dissolved in distilled water accordingly to the supplier recommendation and, if required, stored at 6 °C by the day of analysis. Such prepared solution was then diluted with phosphate buffer, pH 7.4, to the appropriate concentration and the volume of 0.5–2 µL/well depending on the activity was pipetted directly to 96-well plate (Costar 3840). […] Reactions were stared adding 100 µl/well of 20 µM hydrogen peroxide solution.

In data set [7] the target is T1, MPO. To be noted: read-out: recommended average IC50 value; average of CBA, FLBA and NBD-TM probes. The protocol: as §3
Data set [8] can be described thus: Competition kinetics of APC and APF with boronate reference for HOCl. In kind it is physicochemical. To be noted: FLBA (for APC) or CBA (for APF) 25 µM as reference, HOCl 5 µM, pH 7.4. The procedure: The rate constants of 1.8 × 10^4 M^−1s^−1 and 1.1 × 10^4 M^−1s^−1 were obtained for CBA and FLBA, respectively, which are typical values reported for this class of probes (Fig. 4a,b)[29],[36],[38],[45]. […] The highest rate constant was obtained for the NBD-TM probe which was equal to 1.0 × 10^7 M^−1s^−1. This rate constant was calculated using a second order rate constant of 1.8 × 10^4 M^−1s^−1 for the reference compound (CBA). The determined value of the rate constant for NBD-TM is consistent with the reaction rate constants reported for other thioethers with HOCl[41],[46].
as §1, §2
Supplementary Figure S2. The relationship used to determine the rate constant between APF and HOCl (a), or […] and HOCl (b), according to the competition kinetic approach. The solid lines in the panel (a) and (b) represent the linear fittings to the equation […]
(2kFLBA+HOCl = 1,11 × 104 M-1s-1). […] The concentrations of COH and fluorescein were determined by LC/MS. […]

T1 sequence (P05164 279-745 limits assumed): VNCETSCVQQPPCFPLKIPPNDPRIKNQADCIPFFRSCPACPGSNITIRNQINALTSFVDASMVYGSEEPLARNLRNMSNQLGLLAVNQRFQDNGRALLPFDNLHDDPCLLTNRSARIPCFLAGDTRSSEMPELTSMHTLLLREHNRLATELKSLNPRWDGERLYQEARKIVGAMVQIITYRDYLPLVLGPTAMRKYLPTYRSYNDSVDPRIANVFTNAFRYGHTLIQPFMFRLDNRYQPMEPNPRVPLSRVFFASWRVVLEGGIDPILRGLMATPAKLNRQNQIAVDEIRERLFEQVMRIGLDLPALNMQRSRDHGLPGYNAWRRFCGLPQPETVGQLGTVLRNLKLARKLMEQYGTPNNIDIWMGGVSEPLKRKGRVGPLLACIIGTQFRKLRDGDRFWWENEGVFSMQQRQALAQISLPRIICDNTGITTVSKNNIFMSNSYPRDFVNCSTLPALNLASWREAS
T1 sequence (P05164 165-273 limits assumed): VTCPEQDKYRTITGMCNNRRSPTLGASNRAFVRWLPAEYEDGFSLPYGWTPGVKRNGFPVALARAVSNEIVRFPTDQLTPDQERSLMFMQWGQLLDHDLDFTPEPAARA

Consider `O=C1OC2(c3ccc(O)cc3Oc3cc(O)ccc32)c2ccccc21` [fluorescein], for which, in data set [1], the “stability of the fluorescence signal” value is “a slight decrease in the fluorescence intensity”.

Take `O=C(O)c1ccccc1-c1c2ccc(=O)cc-2oc2cc(B(O)O)ccc12` [FLBA, fluorescein boronic acid]: the “Z' value” in data set [2] is recorded as “around 0.9”. In addition, in data set [3], the “stability of stock solution” value is “stable at least one-month”.

In the case of `C[S+](C)[O-]` [DMSO], the “second-order rate constant of the reaction with HOCl” value in data set [4] was 350 ± 40 M⁻¹ s⁻¹.

As to `O=[N+]([O-])c1ccc(N2CCSCC2)c2nonc12` [NBD-TM, 4-thiomorpholino-7-nitrobenz-2-oxa-1,3-diazole], the figures for the “decrease of NBD-TSO concentration by DMSO” value in data set [5] (0.5% (0.07 M) DMSO), in data set [5] (1% (0.14 M) DMSO) and in data set [5] (5% (0.7 M) DMSO) were “about 5%”, “about 10%” and ~35%, respectively. The “Z' value” in data set [2] is “around 0.7”.

Take `O=c1ccc2ccc(O)cc2o1` [COH, 7-hydroxycoumarin]: the “stability of the fluorescence signal” value in data set [1] is on record as “decreasing with the time of incubation”.

`O=c1ccc2ccc(B(O)O)cc2o1` [CBA, coumarin boronic acid]: the “Z' value” in data set [2] is “around 0.9”. Further, in data set [3], the “stability of stock solution” value is recorded as “stable at least one-month”.

As for `[N-]=[N+]=[N-]` [Azide anion, sodium azide], the negative logarithm of the IC50 (pIC50) – broadly, the negative decadic logarithm of the IC50, by convention in mol/L – was 5.71 in data set [6] (APC probe 20 µM, NaCl 0.1 M); 5.63 in data set [6] (APF probe 20 µM, NaCl 0.1 M); 5.98 in data set [6] (Amplex Red 20 µM, no NaCl); 6.00 in data set [6] (Amplex Red 20 µM, no NaCl, listed as N3^–); 6.09 in data set [6] (CBA probe 20 µM, NaCl 0.1 M); 6.27 in data set [6] (FLBA probe 20 µM, NaCl 0.1 M). Moreover, the pIC50 in data set [6] (NBD-TM probe 20 µM, NaCl 0.1 M) was 6.20; in data set [7] it was 6.15.

Regarding `CSCC[C@H](N)C(=O)O` [L-methionine], in data set [4], the “reaction rate constant with HOCl (^2k)” value was 3.4e+07 M⁻¹ s⁻¹.

On to `Nc1ccc(Oc2ccc3c(-c4ccccc4C(=O)O)c4ccc(=O)cc-4oc3c2)cc1` [APF, 3’-(p-aminophenyl)-fluorescein], for which, in data set [8], the “rate constant with HOCl by competition kinetics compared with stopped-flow value” is “nearly identical rate constants”. The “Z' value” in data set [2] was “around 0.9”. The “stability of stock solution” value in data set [3] is “stable at least one-month”.

In the case of 7-(p-aminophenyl)-coumarin [APC], in data set [8], the “rate constant with HOCl by competition kinetics compared with stopped-flow value” is given as “nearly identical rate constants”. Further, the “Z' value” in data set [2] is on record as “around 0.9”.

Take `O=[N+]([O-])c1ccc(N2CC[S+]([O-])CC2)c2nonc12` [NBD-TSO]: in data set [1], the “stability of the fluorescence signal” value is recorded as “slowly decomposing or precipitated during the time of incubation”.
